# Key:
# RAT CORTICAL MEMBRANES = assay: [3H]hemicholinium-3 binding in vitro in cortical membranes after in vivo administration; set-up: species or system Male Sprague-Dawley rats; conditions: n=10
# Text: The pharmacological properties of these compounds as enhancers of memory and cognition and their relative potencies may be measured through their effect on neuro-transmitters in the brain. Since drugs that block GABA inhibition in the cholinergic neurons of the basal forebrain nuclei will stimulate cholinergic firing, thus stimulating memory, the capacity of the drugs to enhance cognition can be assessed by measuring the increase in cholinergic firing rate. The increase in cholinergic firing rate is measured indirectly by measuring choline uptake or [^3H] hemicholinium-3 binding in brain cells taken from treated animals.
# To test for [^3H] hemicholinium-3 binding in brain cells from the brain cortex, drugs were dissolved in saline by sonication. Male Sprague-Dawley rats were dosed i.p. and sacrificed by decapitation 60 min after injection. […] Binding was measured by incubating the tissue with varying concentrations of [^3H]hemicholinium-3 in an isotonic Tris buffer (pH 7.4) for 60 min at room temperature. […] After drying, the filters were placed in scintillation cocktail and radioactivity was determined using a Beckman scintillation counter. The values for the Kd and Bmax were determined by nonlinear curve-fitting and the average values for samples of 3 or more animals reported. […]
# [1] = system: Diazepam-Induced Water Maze Learning Impairment; assay: Reversal of diazepam-induced water maze learning impairment; assay type: in vivo, Male Sprague-Dawley rats; conditions: for Mean Latency ± S.E.M., Block 1 / Mean Latency ± S.E.M., Block 2 / Mean Latency ± S.E.M., Block 3: 8 rats
# Text: The activity of compounds of formula I in enhancing spacial learning ability and cognition can be tested by studying their ability to reverse a water maze learning impairment induced by the benzodiazepine, diazepam (R. G. M. Morris, Learning and Motivation 12, 239-260 (1982); M. P. Arolfo, and J. D. Brioni, Behavioral and Neural Biology 55, 131-6 (1991); R. K. McNamara and R. W. Skelton, Pharmacology, Biochemistry & Behavior 38, 651-8 (1991); R. K. McNamara and R. W. Skelton, Psychopharmacology 107, 347-51 (1992)).
# Male Sprague-Dawley rats are trained in a 120-cm diameter water-filled tank to locate a hidden platform submerged just below the surface of the water. The location of the platform remained constant, but for each trial the animal was required to swim from one of three different starting locations around the edge of the tank. There were no proximal cues in the tank, so the animal had to use a spatial mapping strategy using the distal cues around the room to navigate to the hidden platform. The animals were given 9 successive training trials during the single training day. […] After the animal found or was placed on the platform, it was allowed to stay there for 30 seconds. The next trial commenced immediately following the 30 second stay on the platform. Latency to locate the platform was recorded for each trial using a computerized video tracking system for automated acquisition of the data.
# Separate treatment groups of four animals each were run in each experiment. The results of two experiments were combined so that 8 rats were tested in each treatment group. The vehicle-vehicle group received vehicle (distilled water plus Tween) i.p. 60 minutes prior to the first trial and vehicle i.p. 20 minutes prior to the first trial. The vehicle-diazepam group received vehicle i.p. 60 minutes prior to the first trial and 2.5 mg/kg diazepam i.p. 20 minutes prior to the first trial. Two groups of animals were treated with 3-(3-fluorophenyl)-4-methyl-4H-1,2,4-triazole, a compound of formula I, prior to treatment with diazepam. One group received 20 mg/kg of 3-(3-fluorophenyl)-4-methyl-4H-1,2,4-triazole i.p. 60 minutes prior to the first trial and 2.5 mg/kg diazepam i.p. 20 minutes prior to the first trial, while the second group received 40 mg/kg of 3-(3-fluorophenyl)-4-methyl-4H-1,2,4-triazole i.p. 60 minutes prior to the first trial and 2.5 mg/kg diazepam i.p. 20 minutes prior to the first trial.
# The latency scores for each animal were averaged into three blocks of three trials each (one trial from each starting location). A one-way ANOVA comparing the treatment groups was computed on the scores for each trial block. If the overall ANOVA was statistically significant, comparisons between individual treatment groups were made with Fisher's PLSD test.
# [2] = reported by M. Y. Mhasalkar, et al., J. Med. Chem 14(3) 260-262, (1971); cited from earlier work
# [3] = 20 mg/kg i.p. 60 min prior to first trial, diazepam 2.5 mg/kg i.p. 20 min prior
# [4] = 40 mg/kg i.p. 60 min prior to first trial, diazepam 2.5 mg/kg i.p. 20 min prior
# [5] = vehicle i.p. 60 min prior, diazepam alone 2.5 mg/kg i.p. 20 min prior to first trial
smiles,measurement,setting,value
"Cn1cnnc1-c1cccc(F)c1 [3-(3-Fluorophenyl)-4-methyl-4H-1,2,4-triazole]",Bmax ± SEM,"RAT CORTICAL MEMBRANES; [3H]hemicholinium-3 binding, rat cortex, dosed i.p. (1/mg/kg), sacrificed 60 min after injection",20.4±2.48 fmol/mg Protein
same,% Increase in Bmax,"RAT CORTICAL MEMBRANES; over saline control, (1/mg/kg) i.p., 60 min",45%
same,"Mean Latency ± S.E.M., Block 1",[1]; [3],44.68 ± 2.56 s
same,"Mean Latency ± S.E.M., Block 2",[1]; [3],37.67 ± 6.01 s
same,"Mean Latency ± S.E.M., Block 3",[1]; [3],35.21 ± 6.00 s
same,Effect on diazepam-induced impairment,"[1]; 20 mg/kg i.p. plus diazepam 2.5 mg/kg, result in words",attenuated diazepam-induced impairment
same,"Mean Latency ± S.E.M., Block 1",[1]; [4],58.19 ± 1.01 s
same,"Mean Latency ± S.E.M., Block 2",[1]; [4],52.83 ± 3.85 s
same,"Mean Latency ± S.E.M., Block 3",[1]; [4],53.59 ± 4.31 s
same,Effect on diazepam-induced impairment,"[1]; 40 mg/kg i.p. plus diazepam 2.5 mg/kg, result in words",did not affect the diazepam-induced impairment
"Cn1cnnc1-c1ccc(Cl)cc1 [3-(4-Chlorophenyl)-4-methyl-4H-1,2,4-triazole]",hypoglycemic activity,[2],hypoglycemic activity
"CN1C(=O)CN=C(c2ccccc2)c2cc(Cl)ccc21 [diazepam, reference compound]",Effect on water maze learning,"[1]; diazepam 2.5 mg/kg i.p. versus vehicle-vehicle group, p < .05 on all three blocks, result in words",significantly impaired water maze learning
same,"Mean Latency ± S.E.M., Block 1",[1]; [5],57.70 ± 2.30 s
same,"Mean Latency ± S.E.M., Block 2",[1]; [5],49.67 ± 6.06 s
same,"Mean Latency ± S.E.M., Block 3",[1]; [5],55.76 ± 4.24 s

# From patent EP0725776B1, “3-ARYL-4-ALKYL AND 4,5-DIALKYL-4H-1,2,4-TRIAZOLES USEFUL AS MEMORY ENHANCERS” (MERRELL PHARMACEUTICALS INC., priority 1993, dated 1995)
